Source: BigSolDB 2.1

CCCOC(=O)c1cc(O)c(O)c(O)c1
solubility (mole fraction)
Conditions | in acetone | in ethanol | in ethyl acetate | in isobutanol | in isopropanol | in methanol | in methyl acetate | in n-butanol | in n-propanol
293.15 K | 0.291 | 0.182 | 0.222 | 0.189 | 0.253 | 0.226 | 0.244 | 0.243 | 0.264
298.15 K | 0.311 | 0.201 | 0.24 | 0.209 | 0.273 | 0.242 | 0.264 | 0.259 | 0.283
303.15 K | 0.33 | 0.222 | 0.258 | 0.229 | 0.293 | 0.258 | 0.285 | 0.275 | 0.302
308.15 K | 0.35 | 0.244 | 0.276 | 0.25 | 0.314 | 0.276 | 0.306 | 0.293 | 0.321
313.15 K | 0.369 | 0.266 | 0.295 | 0.272 | 0.336 | 0.295 | 0.329 | 0.312 | 0.34
318.15 K | 0.387 | 0.288 | 0.314 | 0.295 | 0.359 | 0.316 | 0.351 | 0.333 | 0.36
323.15 K | 0.404 | 0.311 | 0.333 | 0.319 | 0.383 | 0.339 | 0.375 | 0.356 | 0.382
328.15 K | 0.412 | 0.323 | 0.343 | 0.331 | 0.396 | 0.351 | 0.39 | 0.368 | 0.394
333.15 K | 0.419 | 0.334 | 0.353 | 0.344 | 0.409 | 0.363 | 0.402 | 0.381 | 0.406
